Measured values: PubChem BioAssay (NCI)
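Five compound concentrations were applied to cells in 96-well plates for 48 hours; endpoints were derived by simple linear interpolation of the resulting dose-response curve. Definition used: TGI = concentration required for complete inhibition of growth.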

Legend:
Assay in all cases: NCI tumour cell line growth inhibition, 48 h
NCI-H522 lung = tested on: NCI-H522 lung
K-562 leukemia = tested on: K-562 leukemia
RPMI-8226 leukemia = tested on: RPMI-8226 leukemia
IGROV1 ovarian = tested on: IGROV1 ovarian
OVCAR-4 ovarian = tested on: OVCAR-4 ovarian
SK-OV-3 ovarian = tested on: SK-OV-3 ovarian
OVCAR-8 ovarian = tested on: OVCAR-8 ovarian
MDA-MB-231 breast = tested on: MDA-MB-231 breast
MOLT-4 leukemia = tested on: MOLT-4 leukemia
MDA-MB-435 = tested on: MDA-MB-435
EKVX NSCLC = tested on: EKVX NSCLC
NCI-H23 lung = tested on: NCI-H23 lung
T-47D breast = tested on: T-47D breast
UACC-257 melanoma = tested on: UACC-257 melanoma
OVCAR-5 ovarian = tested on: OVCAR-5 ovarian
LOX IMVI melanoma = tested on: LOX IMVI melanoma
SF-539 CNS = tested on: SF-539 CNS
OVCAR-3 ovarian = tested on: OVCAR-3 ovarian
SF-295 CNS = tested on: SF-295 CNS
SF-268 CNS = tested on: SF-268 CNS
DU-145 prostate = tested on: DU-145 prostate
TK-10 renal = tested on: TK-10 renal
HOP-92 NSCLC = tested on: HOP-92 NSCLC
KM12 colon = tested on: KM12 colon
MALME-3M melanoma = tested on: MALME-3M melanoma
SN12C renal = tested on: SN12C renal
SK-MEL-5 melanoma = tested on: SK-MEL-5 melanoma
A549 NSCLC = tested on: A549 NSCLC
ACHN renal = tested on: ACHN renal
M14 melanoma = tested on: M14 melanoma
SK-MEL-28 melanoma = tested on: SK-MEL-28 melanoma
A498 renal = tested on: A498 renal
HCT-15 colon = tested on: HCT-15 colon
NCI-H460 lung = tested on: NCI-H460 lung
SNB-19 CNS = tested on: SNB-19 CNS
NCI/ADR-RES ovarian = tested on: NCI/ADR-RES ovarian
UO-31 renal = tested on: UO-31 renal
SW-620 colon = tested on: SW-620 colon
786-0 renal = tested on: 786-0 renal
HCT-116 colon = tested on: HCT-116 colon
U251 CNS = tested on: U251 CNS
SNB-75 CNS = tested on: SNB-75 CNS
NCI-H226 lung = tested on: NCI-H226 lung
COLO 205 colon = tested on: COLO 205 colon
CAKI-1 renal = tested on: CAKI-1 renal
HOP-62 NSCLC = tested on: HOP-62 NSCLC
HT29 colon = tested on: HT29 colon
RXF 393 renal = tested on: RXF 393 renal
MDA-N = tested on: MDA-N
BT-549 breast = tested on: BT-549 breast
MCF7 breast = tested on: MCF7 breast
SK-MEL-2 melanoma = tested on: SK-MEL-2 melanoma
UACC-62 melanoma = tested on: UACC-62 melanoma
CCRF-CEM leukemia = tested on: CCRF-CEM leukemia
PC-3 prostate = tested on: PC-3 prostate
HS 578T breast = tested on: HS 578T breast
HCC-2998 colon = tested on: HCC-2998 colon

CC(=O)[C@@]1(c2ccccc2)CC2(CCN(C)CC2)O[C@H]1C
TGI (NCI-H522 lung): > 100 µM
TGI (K-562 leukemia): > 100 µM
TGI (RPMI-8226 leukemia): > 100 µM
TGI (IGROV1 ovarian): > 100 µM
TGI (OVCAR-4 ovarian): > 100 µM
TGI (SK-OV-3 ovarian): > 100 µM
TGI (OVCAR-8 ovarian): > 100 µM
TGI (MDA-MB-231 breast): > 100 µM
TGI (MOLT-4 leukemia): > 100 µM
TGI (MDA-MB-435): > 100 µM
TGI (EKVX NSCLC): > 100 µM
TGI (NCI-H23 lung): > 100 µM
TGI (T-47D breast): > 100 µM
TGI (UACC-257 melanoma): > 100 µM
TGI (OVCAR-5 ovarian): > 100 µM
TGI (LOX IMVI melanoma): > 100 µM
TGI (SF-539 CNS): > 100 µM
TGI (OVCAR-3 ovarian): > 100 µM
TGI (SF-295 CNS): > 100 µM
TGI (SF-268 CNS): > 100 µM
TGI (DU-145 prostate): > 100 µM
TGI (TK-10 renal): > 100 µM
TGI (HOP-92 NSCLC): > 100 µM
TGI (KM12 colon): > 100 µM
TGI (MALME-3M melanoma): > 100 µM
TGI (SN12C renal): > 100 µM
TGI (SK-MEL-5 melanoma): > 100 µM
TGI (A549 NSCLC): > 100 µM
TGI (ACHN renal): > 100 µM
TGI (M14 melanoma): > 100 µM
TGI (SK-MEL-28 melanoma): > 100 µM
TGI (A498 renal): > 100 µM
TGI (HCT-15 colon): > 100 µM
TGI (NCI-H460 lung): > 100 µM
TGI (SNB-19 CNS): > 100 µM
TGI (NCI/ADR-RES ovarian): > 100 µM
TGI (UO-31 renal): > 100 µM
TGI (SW-620 colon): > 100 µM
TGI (786-0 renal): > 100 µM
TGI (HCT-116 colon): > 100 µM
TGI (U251 CNS): > 100 µM
TGI (SNB-75 CNS): > 100 µM
TGI (NCI-H226 lung): > 100 µM
TGI (COLO 205 colon): > 100 µM
TGI (CAKI-1 renal): > 100 µM
TGI (HOP-62 NSCLC): > 100 µM
TGI (HT29 colon): > 100 µM
TGI (RXF 393 renal): > 100 µM
TGI (MDA-N): > 100 µM
TGI (BT-549 breast): > 100 µM

Fc1ccc(C(OCCN2CCC3CCC(C2)N3C/C=C/c2cccs2)c2ccc(F)cc2)cc1 (stereo unspecified)
TGI (NCI-H522 lung): 17.7 µM
TGI (RPMI-8226 leukemia): 1.78 µM
TGI (MCF7 breast): 21.5 µM
TGI (IGROV1 ovarian): 21.6 µM
TGI (OVCAR-4 ovarian): 22.5 µM
TGI (SK-OV-3 ovarian): 26.3 µM
TGI (OVCAR-8 ovarian): 15.8 µM
TGI (MDA-MB-231 breast): 21.3 µM
TGI (MOLT-4 leukemia): 3.14 µM
TGI (MDA-MB-435): 20.5 µM
TGI (EKVX NSCLC): 16.5 µM
TGI (NCI-H23 lung): 20.9 µM
TGI (T-47D breast): 15.5 µM
TGI (UACC-257 melanoma): 15.1 µM
TGI (OVCAR-5 ovarian): 25.9 µM
TGI (SK-MEL-2 melanoma): 24.1 µM
TGI (LOX IMVI melanoma): 18.9 µM
TGI (UACC-62 melanoma): 23.7 µM
TGI (SF-539 CNS): 22.5 µM
TGI (OVCAR-3 ovarian): 25.3 µM
TGI (SF-295 CNS): 22.4 µM
TGI (SF-268 CNS): 24.6 µM
TGI (DU-145 prostate): 26 µM
TGI (TK-10 renal): 24.3 µM
TGI (HOP-92 NSCLC): 20.3 µM
TGI (KM12 colon): 19.7 µM
TGI (MALME-3M melanoma): 18.9 µM
TGI (SN12C renal): 18 µM
TGI (CCRF-CEM leukemia): 26.7 µM
TGI (SK-MEL-5 melanoma): 12.1 µM
TGI (A549 NSCLC): 24.3 µM
TGI (ACHN renal): 24.1 µM
TGI (M14 melanoma): 14.8 µM
TGI (SK-MEL-28 melanoma): 19.1 µM
TGI (A498 renal): 21 µM
TGI (PC-3 prostate): 18.7 µM
TGI (HCT-15 colon): 16.6 µM
TGI (NCI-H460 lung): 15.4 µM
TGI (SNB-19 CNS): 27.9 µM
TGI (HS 578T breast): 28.4 µM
TGI (HCC-2998 colon): 12.9 µM
TGI (NCI/ADR-RES ovarian): 19.7 µM
TGI (UO-31 renal): 24.3 µM
TGI (SW-620 colon): 19.1 µM
TGI (786-0 renal): 20.8 µM
TGI (HCT-116 colon): 16.3 µM
TGI (U251 CNS): 18.8 µM
TGI (SNB-75 CNS): 29 µM
TGI (NCI-H226 lung): 22.1 µM
TGI (COLO 205 colon): 12.2 µM
TGI (CAKI-1 renal): 23.1 µM
TGI (HOP-62 NSCLC): 30.2 µM
TGI (HT29 colon): 15.4 µM
TGI (RXF 393 renal): 16.3 µM
TGI (MDA-N): 22 µM
TGI (BT-549 breast): 25.9 µM
